Experimental data reported in ChEMBL document CHEMBL5512613, “Design and synthesis of novel 3-amino-5-phenylpyrazole derivatives as tubulin polymerization inhibitors targeting the colchicine-binding site” (Eur J Med Chem, 2024).
Activity calls are given as the source filed them. The calls are words filed in the database; no cut-off is given here.

Key:
MCF7 [1] = assay: Antiproliferative activity against human MCF7 cells assessed as inhibition of cell growth incubated for 48 hrs by MTT assay; assay type: functional, cell-based; conditions: MCF7, 48 h
A549 = assay: Antiproliferative activity against human A549 cells assessed as inhibition of cell growth incubated for 48 hrs by MTT assay; assay type: functional, cell-based; conditions: A549, 48 h
MDA-MB-231 = assay: Antiproliferative activity against human MDA-MB-231 cells assessed as inhibition of cell growth incubated for 48 hrs by MTT assay; assay type: functional, cell-based; conditions: MDA-MB-231, 48 h
HeLa = assay: Antiproliferative activity against human HeLa cells assessed as inhibition of cell growth incubated for 48 hrs by MTT assay; assay type: functional, cell-based
MCF7 [2] = assay: Inhibition of colony formation in human MCF7 cells at 5 to 20 nM incubated for 2 weeks in 5% CO2 at 37 degC by crystal violet staining based analysis; assay type: functional, cell-based; conditions: dose 5-20 nM
Tubulin = assay: Inhibition of tubulin polymerization (unknown origin) measured for 60 mins by fluorescence based analysis; assay type: protein-complex assay, Homo sapiens
Tubulin (Homo sapiens) = Tubulin (Homo sapiens) (UniProt P68371+Q9H4B7+P0DPH7+P68366+Q13509+Q71U36+P04350+Q3ZCM7+P07437+P68363+Q9BQE3+Q6PEY2+Q13885+Q9BVA1+Q9BUF5); assay: Displacement of [3H]colchicine from tubulin (unknown origin) at 1 uM incubated for 2 hrs by scinitillation proximity assay; assay type: protein-complex assay
[3] = target: Tubulin beta (Homo sapiens) (UniProt P68371+Q9H4B7+Q13509+P04350+Q3ZCM7+P07437+Q13885+Q9BVA1+Q9BUF5+A6NNZ2); assay: Binding affinity to beta-tubulin (unknown origin) assessed as decrease in beta-tubulin/EBI adduct formation at 0.2 to 25 uM incubated for 2 hrs followed by incubation with EBI for 1.5 hrs by EBI competition based western blot analysis; assay type: protein assay; conditions: dose 0.2-25 µM, time 3.5 hrs
MCF7 [4] = assay: Induction of cell cycle arrest in human MCF7 cells assessed as proportion of cells at G1 phase at 6.25 nM incubated for 24 hrs by PI staining based flow cytometry (reference value: 64.5%); assay type: functional
MCF7 [5] = assay: Induction of cell cycle arrest in human MCF7 cells assessed as proportion of cells at G2 phase at 6.25 nM incubated for 24 hrs by PI staining based flow cytometry (reference value: 14.4%); assay type: functional
MCF7 [6] = assay: Induction of cell cycle arrest in human MCF7 cells assessed as proportion of cells at S phase at 6.25 nM incubated for 24 hrs by PI staining based flow cytometry (reference value: 21.1%); assay type: functional
MCF7 [7] = assay: Induction of cell cycle arrest in human MCF7 cells assessed as proportion of cells at G1 phase at 12.5 nM incubated for 24 hrs by PI staining based flow cytometry (reference value: 64.5%); assay type: functional
MCF7 [8] = assay: Induction of cell cycle arrest in human MCF7 cells assessed as proportion of cells at S phase at 12.5 nM incubated for 24 hrs by PI staining based flow cytometry (reference value: 21.1%); assay type: functional
MCF7 [9] = assay: Induction of cell cycle arrest in human MCF7 cells assessed as proportion of cells at S phase at 25 nM incubated for 24 hrs by PI staining based flow cytometry (reference value: 21.1%); assay type: functional
MCF7 [10] = assay: Induction of cell cycle arrest in human MCF7 cells assessed as proportion of cells at G1 phase at 25 nM incubated for 6 hrs by PI staining based flow cytometry (reference value: 64.5%); assay type: functional
MCF7 [11] = assay: Induction of cell cycle arrest in human MCF7 cells assessed as proportion of cells at G2 phase at 25 nM incubated for 6 hrs by PI staining based flow cytometry (reference value: 14.4%); assay type: functional
MCF7 [12] = assay: Induction of cell cycle arrest in human MCF7 cells assessed as proportion of cells at S phase at 25 nM incubated for 6 hrs by PI staining based flow cytometry (reference value: 21.1%); assay type: functional
MCF7 [13] = assay: Induction of cell cycle arrest in human MCF7 cells assessed as proportion of cells at G1 phase at 25 nM incubated for 12 hrs by PI staining based flow cytometry (reference value: 64.5%); assay type: functional
MCF7 [14] = assay: Induction of cell cycle arrest in human MCF7 cells assessed as proportion of cells at G2 phase at 25 nM incubated for 12 hrs by PI staining based flow cytometry (reference value: 14.4%); assay type: functional
MCF7 [15] = assay: Induction of cell cycle arrest in human MCF7 cells assessed as proportion of cells at S phase at 25 nM incubated for 12 hrs by PI staining based flow cytometry (reference value: 21.1%); assay type: functional
MCF7 [16] = assay: Induction of cell cycle arrest in human MCF7 cells assessed as increase in cyclin B1 protein expression at 6.25 to 50 nM incubated for 24 hrs by western blot analysis; assay type: functional, cell-based; conditions: dose 6.25-50 nM
MCF7 [17] = assay: Induction of cell cycle arrest in human MCF7 cells assessed as increase in p21 protein expression at 6.25 to 50 nM incubated for 24 hrs by western blot analysis; assay type: functional, cell-based; conditions: dose 6.25-50 nM
MCF7 [18] = assay: Induction of cell cycle arrest in human MCF7 cells assessed as increase in Cdc25c protein expression at 6.25 to 50 nM incubated for 24 hrs by western blot analysis; assay type: functional, cell-based; conditions: dose 6.25-50 nM
MCF7 [19] = assay: Induction of apoptosis in human MCF7 cells at 12.5 to 50 nM incubated for 24 hrs by AnnexinV-FITC/PI staining based flow cytometry; assay type: functional, cell-based; conditions: dose 12.5-50 nM
MCF7 [20] = assay: Induction of apoptosis in human MCF7 cells at 50 nM incubated for 12 to 48 hrs by AnnexinV-FITC/PI staining based flow cytometry; assay type: functional, cell-based; conditions: time 12-48 hrs, TDE = time-dependent effect
MCF7 [21] = assay: Induction of apoptosis in human MCF7 cells assessed as increase in Bax protein expression at 6.25 to 50 nM incubated for 24 hrs by western blot analysis; assay type: functional, cell-based; conditions: dose 6.25-50 nM
MCF7 [22] = assay: Induction of apoptosis in human MCF7 cells assessed as increase in cleaved PARP protein expression at 6.25 to 50 nM incubated for 24 hrs by western blot analysis; assay type: functional, cell-based; conditions: dose 6.25-50 nM
MCF7 [23] = assay: Induction of apoptosis in human MCF7 cells assessed as increase in cleaved caspase-3 protein expression at 6.25 to 50 nM incubated for 24 hrs by western blot analysis; assay type: functional, cell-based; conditions: dose 6.25-50 nM
MCF7 [24] = assay: Induction of apoptosis in human MCF7 cells assessed as decrease in Bcl-2 protein expression at 6.25 to 50 nM incubated for 24 hrs by western blot analysis; assay type: functional, cell-based; conditions: dose 6.25-50 nM
HUVEC [25] = assay: Anti-vascular activity in human HUVEC cells assessed as reduction in length of capillary-like tubules incubated for 6 hrs by Matrigel based inverted fluorescence microscopy; assay type: functional, cell-based; conditions: dose 6.25-50 nM
HUVEC [26] = assay: Anti-vascular activity in human HUVEC cells assessed as reduction in number of loops formed at 6.25 to 50 nM incubated for 6 hrs by Matrigel based inverted fluorescence microscopy; assay type: functional, cell-based; conditions: dose 6.25-50 nM
MCF7 [27] = assay: Antitumor activity against human MCF7 cells xenografted in BALB/c mouse assessed as inhibition of tumor growth by measuring decrease in tumor weight at 20 mg/kg, ip administered every 3 days for 21 days; assay type: functional; conditions: MCF7, 504 h, time 21 day, read-out: TGI
MCF7 [28] = assay: Antitumor activity against human MCF7 cells xenografted in BALB/c mouse assessed as inhibition of tumor growth by measuring decrease in tumor weight at 5 mg/kg, ip administered every 3 days for 21 days; assay type: functional; conditions: MCF7, 504 h, time 21 day, read-out: TGI

**Q.** How did the IC50 (MCF7 [1]) turn out when `COc1cc(C(=O)n2nc(N)cc2-c2ccc(C)cc2)cc(OC)c1OC` was run?
**A.** 0.04 µM

**Q.** And the IC50 (A549)?
**A.** 0.39 µM

**Q.** What about the IC50 (MDA-MB-231) of the same molecule?
**A.** 0.04 µM

**Q.** And the IC50 (HeLa)?
**A.** 0.11 µM

**Q.** And the inhibition (MCF7 [2])?
**A.** Active

**Q.** What about the IC50 (Tubulin) of the same molecule?
**A.** 1.87 µM

**Q.** What about the inhibition (Tubulin (Homo sapiens)) of the same molecule?
**A.** 68.4%

**Q.** And the Activity [3]?
**A.** Active

**Q.** What about the Activity (MCF7 [4]) of the same molecule?
**A.** 53.3%

**Q.** And the Activity (MCF7 [5])?
**A.** 28.3%

**Q.** What about the Activity (MCF7 [6]) of the same molecule?
**A.** 18.4%

**Q.** What about the Activity (MCF7 [7]) of the same molecule?
**A.** 45.1%

**Q.** And the Activity (MCF7 [8])?
**A.** 15.7%

**Q.** And the Activity (MCF7 [9])?
**A.** 10.65%

**Q.** What about the Activity (MCF7 [10]) of the same molecule?
**A.** 31.3%

**Q.** And the Activity (MCF7 [11])?
**A.** 46.7%

**Q.** What about the Activity (MCF7 [12]) of the same molecule?
**A.** 22%

**Q.** And the Activity (MCF7 [13])?
**A.** 14.3%

**Q.** What about the Activity (MCF7 [14]) of the same molecule?
**A.** 62.8%

**Q.** And the Activity (MCF7 [15])?
**A.** 22.9%

**Q.** What about the Activity (MCF7 [16]) of the same molecule?
**A.** Active

**Q.** And the Activity (MCF7 [17])?
**A.** Active

**Q.** And the Activity (MCF7 [18])?
**A.** Active

**Q.** What about the Activity (MCF7 [19]) of the same molecule?
**A.** Dose-Dependent Effect

**Q.** And the Activity (MCF7 [20])?
**A.** Tde

**Q.** And the Activity (MCF7 [21])?
**A.** Active

**Q.** What about the Activity (MCF7 [22]) of the same molecule?
**A.** Active

**Q.** And the Activity (MCF7 [23])?
**A.** Active

**Q.** And the Activity (MCF7 [24])?
**A.** Active

**Q.** And the Activity (HUVEC [25])?
**A.** Dose-Dependent Effect

**Q.** And the Activity (HUVEC [26])?
**A.** Active

**Q.** And the inhibition in vivo at 20 mg/kg (MCF7 [27])?
**A.** 69%

**Q.** What about the inhibition in vivo at 5 mg/kg (MCF7 [28]) of the same molecule?
**A.** 27%
